Source: patent US20130274284A1 (DR. REDDY'S LABORATORIES, INC., priority 2010, published 2013)

Test: storage stability with respect to degradation impurities (OXTP impurity)
Type: physicochemical
Conditions: for stability with respect to impurities such as OXTP impurity: stored in presence of desiccant

degradation during storage leading to impurities such as OXTP impurity (during the storage) | stability with respect to impurities such as OXTP impurity | Structure (SMILES)
degrades during the storage | greater stability | CC(=O)Oc1cc2c(s1)CCN(C(C(=O)C1CC1)c1ccccc1F)C2 (stereo not drawn) [prasugrel, 5-(2-cyclopropyl-1-(2-fluorophenyl)-2-oxoethyl)-4,5,6,7-tetrahydrothieno[3,2-c]pyridin-2-yl acetate]
– | greater stability | CC(=O)Oc1cc2c(s1)CCN(C(C(=O)C1CC1)c1ccccc1F)C2.Cl (racemic) [prasugrel hydrochloride, 5-[(1RS)-2-cyclopropyl-1-(2-fluorophenyl)-2-oxoethyl]-4,5,6,7-tetrahydrothieno[3,2-c]pyridin-2-yl acetate hydrochloride]
